Experimental data as given in ChEMBL document CHEMBL2380302, “Synthesis of 3-O-propargylated betulinic acid and its 1,2,3-triazoles as potential apoptotic agents” (Eur J Med Chem, 2013).

Columns and labels:
SF-295 [1] = assay: Cytotoxicity against human SF295 cells after 48 hrs by SRB assay; type: functional, cell-based; details: SF-295, 48 h
THP-1 [2] = assay: Cytotoxicity against human THP1 cells at 50 uM after 48 hrs by SRB assay; type: functional; details: THP-1, 48 h, read-out: GI
PC-3 [3] = assay: Cytotoxicity against human PC3 cells at 10 uM after 48 hrs by SRB assay; type: functional; details: PC-3, 48 h, read-out: GI
DU-145 [4] = assay: Cytotoxicity against human DU145 cells after 48 hrs by SRB assay; type: functional, cell-based; details: DU-145, 48 h
PC-3 [5] = assay: Cytotoxicity against human PC3 cells at 30 uM after 48 hrs by SRB assay; type: functional; details: PC-3, 48 h, read-out: GI
HL-60 [6] = assay: Cytotoxicity against human HL60 cells at 50 uM after 48 hrs by SRB assay; type: functional; details: HL-60, 48 h, read-out: GI
SF-295 [7] = assay: Cytotoxicity against human SF295 cells at 10 uM after 48 hrs by SRB assay; type: functional; details: SF-295, 48 h, read-out: GI
MCF7 [8] = assay: Cytotoxicity against human MCF7 cells at 10 uM after 48 hrs by SRB assay; type: functional; details: MCF7, 48 h, read-out: GI
SF-295 [9] = assay: Cytotoxicity against human SF295 cells at 30 uM after 48 hrs by SRB assay; type: functional; details: SF-295, 48 h, read-out: GI
HEp-2 [10] = assay: Cytotoxicity against human Hep2 cells at 10 uM after 48 hrs by SRB assay; type: functional; details: HEp-2, 48 h, read-out: GI
THP-1 [11] = assay: Cytotoxicity against human THP1 cells after 48 hrs by SRB assay; type: functional, cell-based; details: THP-1, 48 h
PC-3 [12] = assay: Cytotoxicity against human PC3 cells after 48 hrs by SRB assay; type: functional, cell-based; details: PC-3, 48 h
DU-145 [13] = assay: Cytotoxicity against human DU145 cells at 30 uM after 48 hrs by SRB assay; type: functional; details: DU-145, 48 h, read-out: GI
HEp-2 [14] = assay: Cytotoxicity against human Hep2 cells at 50 uM after 48 hrs by SRB assay; type: functional; details: HEp-2, 48 h, read-out: GI
DU-145 [15] = assay: Cytotoxicity against human DU145 cells at 50 uM after 48 hrs by SRB assay; type: functional; details: DU-145, 48 h, read-out: GI
PC-3 [16] = assay: Cytotoxicity against human PC3 cells at 50 uM after 48 hrs by SRB assay; type: functional; details: PC-3, 48 h, read-out: GI
MCF7 [17] = assay: Cytotoxicity against human MCF7 cells at 30 uM after 48 hrs by SRB assay; type: functional; details: MCF7, 48 h, read-out: GI
A549 [18] = assay: Cytotoxicity against human A549 cells at 50 uM after 48 hrs by SRB assay; type: functional; details: A549, 48 h, read-out: GI
A549 [19] = assay: Cytotoxicity against human A549 cells at 10 uM after 48 hrs by SRB assay; type: functional; details: A549, 48 h, read-out: GI
HL-60 [20] = assay: Cytotoxicity against human HL60 cells at 30 uM after 48 hrs by SRB assay; type: functional; details: HL-60, 48 h, read-out: GI
HCT-15 [21] = assay: Cytotoxicity against human HCT15 cells at 10 uM after 48 hrs by SRB assay; type: functional; details: HCT-15, 48 h, read-out: GI
MCF7 [22] = assay: Cytotoxicity against human MCF7 cells at 50 uM after 48 hrs by SRB assay; type: functional; details: MCF7, 48 h, read-out: GI
HL-60 [23] = assay: Cytotoxicity against human HL60 cells after 48 hrs by SRB assay; type: functional, cell-based; details: HL-60, 48 h
SF-295 [24] = assay: Cytotoxicity against human SF295 cells at 50 uM after 48 hrs by SRB assay; type: functional; details: SF-295, 48 h, read-out: GI
HEp-2 [25] = assay: Cytotoxicity against human Hep2 cells after 48 hrs by SRB assay; type: functional, cell-based; details: HEp-2, 48 h
HCT-15 [26] = assay: Cytotoxicity against human HCT15 cells at 30 uM after 48 hrs by SRB assay; type: functional; details: HCT-15, 48 h, read-out: GI
THP-1 [27] = assay: Cytotoxicity against human THP1 cells at 30 uM after 48 hrs by SRB assay; type: functional; details: THP-1, 48 h, read-out: GI
HCT-15 [28] = assay: Cytotoxicity against human HCT15 cells after 48 hrs by SRB assay; type: functional, cell-based; details: HCT-15, 48 h
A549 [29] = assay: Cytotoxicity against human A549 cells after 48 hrs by SRB assay; type: functional, cell-based; details: A549, 48 h
A549 [30] = assay: Cytotoxicity against human A549 cells at 30 uM after 48 hrs by SRB assay; type: functional; details: A549, 48 h, read-out: GI
THP-1 [31] = assay: Cytotoxicity against human THP1 cells at 10 uM after 48 hrs by SRB assay; type: functional; details: THP-1, 48 h, read-out: GI
DU-145 [32] = assay: Cytotoxicity against human DU145 cells at 10 uM after 48 hrs by SRB assay; type: functional; details: DU-145, 48 h, read-out: GI
MCF7 [33] = assay: Cytotoxicity against human MCF7 cells after 48 hrs by SRB assay; type: functional, cell-based; details: MCF7, 48 h
HEp-2 [34] = assay: Cytotoxicity against human Hep2 cells at 30 uM after 48 hrs by SRB assay; type: functional; details: HEp-2, 48 h, read-out: GI
HL-60 [35] = assay: Cytotoxicity against human HL60 cells at 10 uM after 48 hrs by SRB assay; type: functional; details: HL-60, 48 h, read-out: GI
HCT-15 [36] = assay: Cytotoxicity against human HCT15 cells at 50 uM after 48 hrs by SRB assay; type: functional; details: HCT-15, 48 h, read-out: GI

Compound | IC50 (SF-295 [1]) [µM] | inhibition of growth at 50 µM (THP-1 [2]) [%] | inhibition of growth at 10 µM (PC-3 [3]) [%] | IC50 (DU-145 [4]) [µM] | inhibition of growth at 30 µM (PC-3 [5]) [%] | inhibition of growth at 50 µM (HL-60 [6]) [%] | inhibition of growth at 10 µM (SF-295 [7]) [%] | inhibition of growth at 10 µM (MCF7 [8]) [%] | inhibition of growth at 30 µM (SF-295 [9]) [%] | inhibition of growth at 10 µM (HEp-2 [10]) [%] | IC50 (THP-1 [11]) [µM] | IC50 (PC-3 [12]) [µM] | inhibition of growth at 30 µM (DU-145 [13]) [%] | inhibition of growth at 50 µM (HEp-2 [14]) [%] | inhibition of growth at 50 µM (DU-145 [15]) [%] | inhibition of growth at 50 µM (PC-3 [16]) [%] | inhibition of growth at 30 µM (MCF7 [17]) [%] | inhibition of growth at 50 µM (A549 [18]) [%] | inhibition of growth at 10 µM (A549 [19]) [%] | inhibition of growth at 30 µM (HL-60 [20]) [%] | further results
C=C(C)[C@@H]1CC[C@]2(C(=O)O)CC[C@]3(C)[C@H](CC[C@@H]4[C@@]5(C)CC[C@H](OCc6cn(-c7ccc(C#N)cc7)nn6)C(C)(C)[C@@H]5CC[C@]43C)[C@@H]12 | 48 | 47 | 3 | > 50 | 5 | 48 | 5 | 5 | 18 | 1 | > 50 | > 50 | 15 | 60 | 20 | 42 | 32 | 36 | 22 | 40 | inhibition of growth at 10 µM (HCT-15 [21]): 14%; inhibition of growth at 50 µM (MCF7 [22]): 51%; IC50 (HL-60 [23]): 32 µM; inhibition of growth at 50 µM (SF-295 [24]): 54%; IC50 (HEp-2 [25]): 32 µM; inhibition of growth at 30 µM (HCT-15 [26]): 80%; inhibition of growth at 30 µM (THP-1 [27]): 44%; IC50 (HCT-15 [28]): > 50 µM; IC50 (A549 [29]): > 50 µM; inhibition of growth at 30 µM (A549 [30]): 28%; inhibition of growth at 10 µM (THP-1 [31]): 21%; inhibition of growth at 10 µM (DU-145 [32]): 1%; IC50 (MCF7 [33]): 49 µM; inhibition of growth at 30 µM (HEp-2 [34]): 49%; inhibition of growth at 10 µM (HL-60 [35]): 15%; inhibition of growth at 50 µM (HCT-15 [36]): 39%
C=C(C)[C@@H]1CC[C@]2(C(=O)O)CC[C@]3(C)[C@H](CC[C@@H]4[C@@]5(C)CC[C@H](OCc6cn(-c7cccc(I)c7)nn6)C(C)(C)[C@@H]5CC[C@]43C)[C@@H]12 | 44 | 56 | 8 | 25 | 24 | 64 | 6 | 51 | 27 | 71 | 46 | 39 | 62 | 72 | 62 | 27 | 58 | 33 | 28 | 45 | inhibition of growth at 10 µM (HCT-15 [21]): 29%; inhibition of growth at 50 µM (MCF7 [22]): 61%; IC50 (HL-60 [23]): 43 µM; inhibition of growth at 50 µM (SF-295 [24]): 66%; IC50 (HEp-2 [25]): 3.8 µM; inhibition of growth at 30 µM (HCT-15 [26]): 45%; inhibition of growth at 30 µM (THP-1 [27]): 41%; IC50 (HCT-15 [28]): 39 µM; IC50 (A549 [29]): > 50 µM; inhibition of growth at 30 µM (A549 [30]): 27%; inhibition of growth at 10 µM (THP-1 [31]): 9%; inhibition of growth at 10 µM (DU-145 [32]): 23%; IC50 (MCF7 [33]): 8 µM; inhibition of growth at 30 µM (HEp-2 [34]): 74%; inhibition of growth at 10 µM (HL-60 [35]): 13%; inhibition of growth at 50 µM (HCT-15 [36]): 54%
